Columns and labels:
[1] = tested on: C57BL/6 mice; experiment: Quantitation of luciferase expression in tissues; format: in vivo, mouse; details: 0.1 mM peptides + 5E+10 vg AAV8/luc
Description: Quantitation of luciferase expression in tissues. Animals utilized for imaging studies were sacrificed after one-week post imaging work, and the tissues of the heart, liver, spleen, skeletal muscle and brain were collected, and were minced and homogenized in passive lysis buffer. Then the lysates were centrifuged at 10,000 rpm for 5 minutes to remove cellular debris. Supernatant was transferred to 96-well plates for luciferase activity analysis as described above. Total protein concentration in tissue lysates was measured using the Bradford assay (Bio-Rad Laboratories, Philadelphia, PA).

[2] = tested on: C57BL/6 mice; experiment: Measurement of AAV genome copy number in tissue; format: in vivo, mouse; details: 0.1 mM peptides + 5E+10 vg AAV8/luc; vs AAV8 only
Description: Measurement of AAV genome copy number in tissue. Total gDNA from different minced tissues was isolated with the DNeasy blood & tissue kit (Qiagen, USA). Luciferase gene was measured by qPCR assay. Mouse-lamin gene served as an internal control.

[3] = tested on: C57BL/6 mice; experiment: In vivo luciferase imaging after retro-orbital injection of AAV8/luc with peptides; set-up: species or system mouse; details: 0.1 mM peptides + 5E+10 vg AAV8/luc, retro-orbital vein, 7th day
Description: Animal study. […] Mice were administered with AAV8/Luc incubated with peptides via retro-orbital injection. Luciferase expression was imaged at the indicated time points using a Xenogen IVIS Lumina (Caliper Lifesciences, Waltham, MA) following intraperitoneal injection of D-luciferin substrate (Nanolight Pinetop, AZ). Bioluminescent images were analyzed using Living Image (PerkinElmer, Waltham, MA). At various time points after injection, blood was collected from the retro-orbital plexus, and the viral titers were tested by qPCR.

[4] = tested on: human transferrin binding to AAV8 virions; experiment: AAV8 competitive binding assay; details: pre-incubation with AAV8, then human transferrin; pull down with transferrin antibody, qPCR
Description: AAV8 competitive binding assay. For THR competitive binding analysis, 10 ul of Protein G resin (Thermo, USA) per system was incubated with 1 ug of human transferrin antibody or goat IgG antibody control at 4° C. overnight. […] After that, the mixture was added to the complex of protein G resin and transferrin antibody and incubated at 4° C. overnight. Finally, the complex was stringently washed three times with cold DPBS. DNA from the complex was extracted and applied for qPCR to determine AAV genome copy number per cell using luc specific primers.
To investigate whether THR also binds to the same location of AAV8 virions as human serum proteins, we performed a competitive assay. […] The transferrin antibody was used to pull down transferrin bound AAV8 virions and AAV8 gene copy number was measured by qPCR.

[5] = tested on: HEK293 cells or Huh7 cells; experiment: In vitro transduction assay, AAV8/luc with peptides; format: cell-based, human; details: 10000 vg AAV8/luc incubated with peptides 2 h at 4° C.; both cell lines; 48 h; vs AAV8 only
Description: In vitro transduction assay. At least 4-5 h prior to AAV transduction, cells were seeded in 48-well plates with a density of 1E+05 cells each well. Cells were infected with 1E+04 vector genomes (vg) of AAV8/luc virus per cell and harvested after 48 h. Luciferase activity was measured following manufacturer's instruction (Promega, Madison, WI).
The complex of AAV8 and peptides influences AAV8 transduction in vitro and in vivo. To identify the potential and functional peptides that enhanced AAV8 transduction, we screened several reported peptides as shown in Table 5 and Table 6. First, we tested the cytotoxicity of peptides at different concentrations on cells. […] After that, we performed the transduction assay in vitro. We incubated the 10000 vg AAV8/luc and peptides for 2 h at 4° C., and then applied the mixture to HEK293 cells or Huh7 cells. After 48 h, the cell lysate was collected for luciferase analysis.

Substance	AAV8 brain transduction (luc expression and genome number) [1]	AAV genome copy number in the brain [2]	transgene expression in the liver (imaging) [3]	inhibition of transferrin binding to AAV8 [4]	AAV8 transduction (luciferase) [5]	AAV8 liver transduction [1]
(LRKLRKRLL)2 (LRKLRKRLLLRKLRKRLL) [ApoE (159-167)2]	increased AAV8 transduction in the brain	much higher	higher	–	–	–
FILMVWAPFI [PEPXT-1, control peptide, neutral polarity]	–	–	–	no effect	–	–
GRKKRRQRRRPPQ [HIV-1 TAT (48-60)]	no effect on brain transduction	–	higher	–	significantly enhanced AAV8 transduction	increased AAV8 liver transduction
KKALLALALHHLAHLALALKKAC [LAH4]	no effect on brain transduction	–	higher	–	significantly enhanced AAV8 transduction	increased AAV8 liver transduction
TFFYGGSRGKRNNFKTEEY-OH [Angiopep-2]	increased AAV8 transduction in the brain	much higher	higher	–	–	–
YQQILTSMPSRNVIQISNDLENLRDLLHVL [Leptin 30 (61-90)]	increased AAV8 transduction in the brain	much higher	higher	–	significantly enhanced AAV8 transduction	–

Reference: patent US12281335B2, “Methods and compositions for delivery of viral vectors across the blood-brain barrier” (priority 2017, dated 2025)
